Values quoted from earlier work in patent US11492588B2, “Lactococcus lactis subsp. lactis CCFM1018 and application thereof in preparation of food and medicine for excreting plasticizer” (priority 2018, dated 2022).

Details: human body

CCCCC(CC)COC(=O)c1ccccc1C(=O)OCC(CC)CCCC (stereo not shown) [DEHP, di(2-ethylhexyl) phthalate]
Absorption and distribution period: 4 to 8 h
Time within which most of the DEHP is completely metabolized: ≤ 24 h
Share converted into five secondary metabolites and excreted in urine (24 h after entry): about 67%
Share directly excreted in urine (24 h after entry): less than 10%
